Here are results for three compounds from US9993516B2, “Treatment of left ventricular non-compaction and dilated cardiomyopathy by inhibiting melanocortin receptor four” (THE BRIGHAM AND WOMEN'S HOSPITAL, INC., priority 2013, dated 2018).

Series [1] deals with healthy wildtype zebrafish embryos.
Method: MC4 receptor antagonists and agonists were dissolved in 100% DMSO to a stock concentration of 1 mM. Working solutions were diluted in nuclease free water. The concentrations for MCL0020, HS014, SU9119 were 1 μM, for JKC363 2 μM, HS024 200 nM and for the MC4 receptor agonist THIQ 1 μM and 500 μM.
(§1) Working solutions of 10 nM, 100 nM or 1 μM were diluted in 20 ml E3 water and zebrafish embryos were incubated directly after birth. Cardiac function was assessed at 48 hpf as described below.
For analysis of cardiac function embryos were laterally positioned and allowed to acclimate at 24° C. Video microscopy was performed on an Axioplan (Zeiss) upright microscope with a FastCam-PCI high-Speed digital camera (Photron) on top. 1088 frames were digitally captured at identical frame rates (250 frames per second) and magnification (5×). Sequential images were analyzed for heart rate and cardiac output using IMAGEJ and Excel. Experiments were repeated at least 3 times on each occasion using 10 animals.
In series [2] the test system is PRDM16 morphant knockdown embryos and truncation mutant (p.K702X) transgenics. As to the kind of experiment: Cardiac function (cardiac output) by video microscopy in PRDM16 morphant and truncation mutant zebrafish embryos, rescue experiments. The format is in vivo. The following applies: for rescue of reduced cardiac output (contractile impairment): injected into yolk sac at one-cell stage, MCL0020, HS014, SU9119 1 μM, JKC363 2 μM, HS024 200 nM, THIQ 1 μM and 500 μM. The procedure: Morpholinos directed against the translation start codon were 5'-[…] NO: 7) for prdm16 (Gene Tools (Philomath, Oreg.)) and were injected at the one cell stage. Concentrations of 0.2 mM were used. For cardiac-specific overexpression experiments the human PRDM16 truncation mutation ([…]) and the human PRDM16 wildtype were cloned downstream of the cmlc2 promoter into the Tol2kit expression system using Gateway technology (Invitrogen). PRDM16 constructs (15 ng/μl) were co-injected with 10 ng/μl capped Tol2 transposase mRNA into one-cell-stage zebrafish embryos.

In series [3] the test system is PRDM16 mutant model as well as wildtype fish. The series is described as follows: Tail necrosis on norepinephrine incubation of zebrafish embryos. The following applies: high doses of norepinephrine. The format is in vivo.
Method: as §1
For series [4], the system named is PRDM16 mutants. As to the kind of experiment: Apoptosis (TUNEL assay) in isolated hearts of PRDM16 mutant zebrafish. Type of series: in vivo. Conditions: hearts at 48 hpf. The procedure: For detection of apoptosis hearts from 48 hpf old zebrafish embryos were isolated and fixed in 4% PFA/PBS for 30 min and washed twice in PBS-T for 30 min. TUNEL assay was performed by using the in situ cell detection kit from Roche. Hearts were mounted with ProLong Antifade reagent with DAPI on a slide and confocal images were analyzed using IMAGEJ.

Series [5] deals with PRDM16 morphant and mutant hearts. As to the kind of experiment: Intercellular coupling / conduction velocity by optical mapping of isolated zebrafish embryo hearts. The format is in vivo. The procedure: Intercellular coupling parameters in zebrafish embryo hearts were measured using previously reported techniques. Briefly, hearts were isolated from zebrafish embryos, stained with the transmembrane-potential-sensitive dye di-8-ANEPPS (Invitrogen) and placed into a perfusion chamber that was mounted onto the stage of an inverted microscope. Excitation light from a high-intensity Hg arc lamp was transmitted through a 525/50-nm bandpass filter and reflected onto the preparation via a 565-nm dichroic mirror. Fluorescence emission was filtered by a 685/80-nm bandpass filter and recorded at a rate of 2000 s^-1 by a high-speed CCD camera (CardioCCD-[…]). Single-pixel action potentials were extracted from the fluorescence data and conduction velocities were estimated using an established algorithm. Experiments were repeated at least 2 times with 5 animals. Immunofluorescence, Detection of Apotosis and Mitochondrial Assessment

The subject of series [6] is PRDM16 morphant and truncation mutant hearts. The series is described as follows: Cardiomyocyte proliferation (PCNA staining) in isolated hearts of PRDM16 morphant/mutant zebrafish. The format is in vivo. Conditions: hearts at 48 hpf. Here is the method: For proliferation detection hearts from 48 hpf old zebrafish embryos were isolated and fixed in Prefer fixative (Anatech). The fixed hearts were stained with the primary antibodies rabbit anti-PCNA 1:200 (Abcam) and mouse anti-MF20 1:100 (DSHB), and the secondary antibodies donkey or goat anti-rabbit or mouse Alexa 488 or 546 conjugated (Invitrogen) 1:1,000. Hearts were mounted with ProLong Antifade reagent with DAPI mounting medium on a slide. Confocal images were analyzed using IMAGEJ.

Consider `O=C(N[C@H](Cc1ccc(Cl)cc1)C(=O)N1CCC(Cn2cncn2)(C2CCCCC2)CC1)[C@H]1Cc2ccccc2CN1` [THIQ], for which the “cardiac output in wildtype embryos” value in series [1] (THIQ 1 μM and 500 μM) was “decreases cardiac output”. Also, the heart rate entry in series [1] (THIQ, FIGS. 8A and 8B, fish group not given) was “not altered”. In series [2], the “rescue of reduced cardiac output (contractile impairment)” value is “not able to rescue”.
In the case of `NC[C@H](O)c1ccc(O)c(O)c1` [norepinephrine], the “necrosis of the tail” value in series [3] is given as “necrosis of the tail”. Also, the “rescue of contractile dysfunction” value in series [2] (PRDM16 mutant model, norepinephrine doses of 10 nM up to 1 μM, incubation in E3 water, 48 hpf) is given as “able to rescue”.
On to HS024, for which the increased apoptosis entry in series [4] is “restored”. In addition, the “rescue of reduced cardiac output (contractile impairment)” value in series [2] is “efficiently rescued”. Moreover, in series [5], the “disrupted coupling of cells (reduction in impulse propagation velocities)” value is listed as “rescued”. In series [6], the “decreased cardiomyocyte proliferation (percentage of PCNA positive cells)” value is “prevented or reduced”.
